Test results reported in US20260103474A1, “NOVEL COMPOUNDS FOR THE DIAGNOSIS OF TDP-43 PROTEINOPATHIES” (AC IMMUNE SA, priority 2022, published 2026).

Columns and labels:
[1] = PK studies in healthy monkey (PET); format: in vivo; conditions: iv, Non-Human Primate; for Time of brain entry post injection / Washout: peak to half peak: whole brain
Method: Non-Human Primate (NHP) was injected intravenously (iv) with the [^18F]-labeled Compound 1 ([^18F]Compound 1) (4.2 mCi) or with the [^18F]-labeled Compound 17 ([^18F]-Compound 17) (5.3 mCi). Monkey PET scans were performed using a Siemens Focus 220. PET acquisition started immediately before the radioactive dose was injected. Images were generated as dynamic scans for 120 minutes with head focused.

TDP-43 aggregates = TDP-43 aggregates (Homo sapiens, UniProt Q13148); test: Micro-autoradiography staining in brain sections from patients with FTD; format: binding; parameters: from tissue; host or cells: frozen post-mortem human brain sections (FTLD-TDP type A and type B; non-demented controls in the classical autoradiography); conditions: FTLD-TDP type A brain sections; 120 nM
Method: All tissues were collected from donors for or from whom a written informed consent for a brain autopsy and the use of the material and clinical information for research purposes had been obtained by the respective brain banks. All samples were anonymized and coded. Frozen brain tissue blocks with confirmed TDP-43 pathology upon autopsy were processed using a cryotome to generate sections of 10 μm in thickness and mounted on glass slides. Sections were kept at −80° C. until use.
Brain sections were immunostained using a commercially available antibody, specific for phosphorylated serine at amino acid 409/410 (anti-pTDP-43 pS409/410, Biolegend, 829901). Sections were fixed for 15 minutes at 4° C. with 4% formaldehyde (Sigma, 252549) and washed three times for height minutes with 1×PBS (Dulbecco's phosphate buffered saline, Sigma D1408) at room temperature. Next, sections were saturated and permeabilized in blocking buffer (PBS, 10% normal goat serum (NGS), 0.25% Triton X-100) for one hour at room temperature and incubated overnight at 4° C. with primary antibody against pTDP-43 (diluted at 1/500 in PBS, 5% NGS, 0.25% Triton X-100). The following day, sections were washed three times for height minutes with 1×PBS before incubation with a secondary, AlexaFluor633-labeled goat-anti-rat antibody (Invitrogen, A-21094, diluted at 1/500 in PBS) for 45 minutes at room temperature. Following incubation with […] antibodies the sections were washed three times in PBS before being processed further.
For micro-autoradiography, tritiated test compound ([^3H]-Compound 1, [^3H]-Compound 9 or [^3H]-Compound 17 respectively) was incubated on the sections at 120 nM in 50 mM Tris buffer pH 7.4 for 45 minutes at room temperature. Sections were then washed as follows: once in ice-cold 50 mM Tris-HCl pH 7.4 buffer for one minute, twice in ice-cold 70% ethanol for one minute, once in ice-cold 50 mM Tris-HCl pH 7.4 buffer for one minute and finally rinsed briefly in ice-cold distilled water. Sections were subsequently dried for one hour under a stream of air and then exposed to Ilford Nuclear Emulsion Type K5 (Agar Scientific, AGP9281) for ten days at 4° C. in a light-proof slide storage box. The sections were developed by immersing them successively in the following solutions: 1.) Ilford Phenisol Developer (1:5 dilution in H2O, Agar Scientific, AGP9106) for four minutes, 2.) Ilfostop solution (1:20 dilution in H2O, Agar Scientific, AGP9104) for two minutes, 3.) Ilford Hypam Fixer (1:5 dilution in H2O, Agar Scientific, AGP9183) for four minutes and finally rinsed with H2O for 10 minutes.
For image acquisition, sections were mounted using ProLong Gold Antifade reagent (Invitrogen P36930) and imaged on a Panoramic250 Slide Scanner (3DHistech) with a 40× objective capturing brightfield and fluorescent images separately or on a Panoramic Scan II (3DHistech) with a 20× objective. The Visiopharm image analysis software suite was used to align the fluorescent image with the brightfield image.

[2] = target: human FTD Type A sarkosyl-insoluble brain extracts (Homo sapiens, UniProt Q13148); test: Kd determination by micro-radiobinding assay on FTD Type A extracts; format: binding; conditions: tritiated compound 1.29 to 300 nM
Method: Human brain extracts were prepared as described in Laferriere et al., 2019, Nature Neurosc. A sample of brain tissue (frontal or temporal cortex) was homogenized at 1:4 (w/v) ratio in the homogenization-solubilization (HS) buffer at 4° C. using tissue homogenizer (Precellys) with CKmix homogenization tubes. The following sequence was used for homogenization: 3 cycles of 30 seconds at 5000 rpm (with 15 seconds pause between each cycle). Homogenized samples were aliquoted and stored at −80° C. in 1.5 mL low protein binding tubes.
Brain homogenates were thawed on ice and resuspended in HS buffer to obtain a final concentration of 2% sarkosyl, 1 unit/μL Benzonase and 1 mM MgCl2. The samples were then incubated at 37° C. under constant shaking at 600 rpm on a thermomixer for 45 minutes (min). The supernatants were collected in a new tube (sarkosyl-soluble fraction, S1). The pellet was resuspended in 1000 μL of myelin floatation buffer and centrifuged at 20,000 g for 60 min at 4° C. The supernatant was carefully removed to remove all the floating lipids. This step was repeated if all the lipids could not be removed in a single step. The pellet was subsequently washed with Phosphate-Buffered Saline (PBS) and centrifuged for 30 min at 20,000 g at 4° C. The final pellet was resuspended in 200 μL PBS and stored at −80° C. (sarkosyl-insoluble fraction). The samples were analyzed by immunoblotting in denaturing conditions.
Human FTD sarkosyl-insoluble brain extracts were spotted onto microarray slides. The slides were incubated with [^3H]-Compounds 1, 7, 8, 9, 15, 16 and 17 in a range of concentrations, varying from 1.29 to 300 nM. After incubation, slides were washed and scanned by a real-time autoradiography system (BeaQuant, ai4R). Quantification of the signal was performed by using the Beamage image analysis software (ai4R). Non-specific signal was determined with an excess of non-radiolabeled compound 1, 7, 8, 9, 15, 16 and 17 (1 μM), respectively, and specific binding was calculated by subtracting the non-specific signal from the total signal.
The Kd (Dissociation constant) and R^2 (parameter ranging between 0.0 and 1.0 that quantifies the goodness of fit, and the best curve fit obtained with value of 1.0) were obtained by fitting the specific binding data with non-linear regression analysis, using a one-site specific binding model in GraphPad Prism8.

Sequence of human FTD Type A sarkosyl-insoluble brain extracts (Q13148 263-414 limits assumed): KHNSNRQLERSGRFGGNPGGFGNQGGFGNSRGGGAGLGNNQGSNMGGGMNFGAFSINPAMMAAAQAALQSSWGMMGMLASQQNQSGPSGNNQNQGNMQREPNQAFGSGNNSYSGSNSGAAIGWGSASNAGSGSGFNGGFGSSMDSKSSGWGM
Sequence of TDP-43 aggregates (Q13148 whole entry): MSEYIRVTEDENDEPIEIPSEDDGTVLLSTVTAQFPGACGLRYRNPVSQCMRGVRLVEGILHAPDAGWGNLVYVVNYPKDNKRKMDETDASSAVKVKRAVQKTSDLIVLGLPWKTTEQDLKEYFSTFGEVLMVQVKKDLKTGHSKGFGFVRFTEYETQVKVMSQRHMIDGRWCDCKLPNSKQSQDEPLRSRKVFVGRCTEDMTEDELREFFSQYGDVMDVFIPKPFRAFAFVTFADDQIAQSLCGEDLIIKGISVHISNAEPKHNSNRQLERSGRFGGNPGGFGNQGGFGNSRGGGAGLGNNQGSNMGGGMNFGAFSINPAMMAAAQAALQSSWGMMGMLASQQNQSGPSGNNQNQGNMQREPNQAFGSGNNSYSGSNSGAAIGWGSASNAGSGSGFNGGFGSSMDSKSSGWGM

Compound | SUVmax whole brain [1] | Time of brain entry post injection [1] | Washout: peak to half peak [1] | Micro-autoradiography silver grain signal versus pTDP-43 immunostaining (TDP-43 aggregates) | Kd [2]
O=C1c2sc(-c3ccc(N4CCC(CO)CC4)nc3[18F])nc2CCN1c1cccnc1 [[^18F]-Compound 17, 2-(2-(fluoro-^18F)-6-(4-(hydroxymethyl)piperidin-1-yl)pyridin-3-yl)-5-(pyridin-3-yl)-6,7-dihydrothiazolo[5,4-c]pyridin-4(5H)-one] | 1.1 SUVmax | 4.5 min | < 13 min |  | 
[3H]c1cncc(N2CCc3nc(-c4cc([3H])c(N5CCCC5)nc4F)sc3C2=O)c1 [[^3H]-Compound 9, Tritiated 2-(2-fluoro-6-(pyrrolidin-1-yl)pyridin-3-yl)-5-(pyridin-3-yl)-6,7-dihydrothiazolo[5,4-c]pyridin-4(5H)-one] |  |  |  | colocalization with pTDP-43 aggregates | 26 nM
O=C1c2sc(-c3ccc(N4CC[C@@H]([18F])C4)nc3F)nc2CCN1c1cccnc1 [[^18F]-Compound 1, fluorinated 2-[2-fluoro-6-[(3R)-3-fluoropyrrolidin-1-yl]-3-pyridyl]-5-(3-pyridyl)-6,7-dihydrothiazolo[5,4-c]pyridin-4-one] | 2.7 SUVmax | 5.5 min | < 17 min |  | 
